Assay results published in patent US9260382B2, “Methods of reducing virulence in bacteria” (priority 2010, dated 2016).

Key:
hrpA promoter (T3SS) = assay: GFP reporter plasmid phrpA, flow cytometry (FACS) of hrpA promoter activity; type: cell-based, Dickeya dadantii 3937; conditions: for change of average GFP fluorescence intensity of Ech3937 (phrpA) vs MM alone, in words: 0.1 mM; for GFP Mean Fluorescence Intensity, hrpA promoter: MM + 0.1 mM compound
Procedure, shortened: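 D. dadantii (Ech) 3937 carrying the phrpA promoter–GFP transcriptional fusion was grown in T3SS minimal medium with 100 μM compound, starting from an inoculum of OD600 1.0. GFP was read by flow cytometry at 12 and 24 h. Values are mean fluorescence intensity of three replicates ± SD, with compound-free MM as control.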

[1] = test system: mrp promoter (reference gene); assay: GFP reporter plasmid pmrp, flow cytometry (reference gene); type: cell-based, Dickeya dadantii 3937; conditions: for mean fluorescence intensity of GFP, mrp promoter: 3937 (pmrp), MM + 100 μM
Description: FACS analysis of promoter activity of dspE, hrpA, hrpL, hrpN, and hrpS was carried out as described (Peng et al., 2006). Briefly, the wild-type Ech3937 and the mutant strains carrying the promoter reporter plasmid were grown on LB broth at 28° C. overnight and transferred to appropriate media. For FACS analysis, samples were collected by centrifugation, washed with 1× phosphate buffer saline (PBS) at 13,000 rpm for 1 min, and re-suspended in 1×PBS to ca 10^6 CFU/ml prior to being run in a FACS Calibur flow cytometer (BD Biosciences, CA). Three replicates were performed for each treatment.
Since OCA and TCA induced the expression of hrpN, the effect of these two phenolic compounds on the expression of hrpA, hrpL, and hrpS was investigated further. […] GFP intensity was determined on gated populations of bacterial cells by flow cytometry and analyzed with the Cell Quest software (BD Biosciences, San Jose, Calif.). The lines labeled “1” stand for the GFP expression control base level of the Ech3937 containing pPROBE-AT vector; lines labeled “2” stand for the promoter activity of hrpS, hrpL, hrpA and hrpN in Ech3937 in MM; lines labeled “3” stand for the promoter activity of Ech3937 in MM supplemented with 0.1 mM OCA; lines labeled “4” stand for the promoter activity of hrpL mutant WPP96 in MM; lines labeled “5” stand for the promoter activity of hrpL mutant WPP96 in MM supplemented with 0.1 mM OCA. Values are representative of at least two experiments. […] Compared with MM alone, the average GFP fluorescence intensity of bacterial cells of Ech3937 (phrpA) was doubled when 0.1 mM of OCA and TCA were added to the medium (Table 4; FIG. 3). […] The mrp, whose protein product has an ATPase conserved domain (2e-06), was used as a reference gene in this study.

dspE mRNA = assay: qRT-PCR relative mRNA level of dspE; type: cell-based, Dickeya dadantii 3937; conditions: 0.1 mM in MM
Description: Bacterial strains were grown in MM. Total RNA from the bacterial cells was isolated by using the TRI reagent method (Sigma, Mo.) and treated with Turbo DNA-free DNase kits (Ambion, Tex.) as described (Peng et al., 2006). An iScript cDNA Synthesis Kit (Bio-Rad, CA) was used to synthesize cDNA from 0.5 μg of treated total RNA. The Real Master Mix (Eppendorf, Westbury, N.Y.) was used for qRT-PCR reaction to quantify the cDNA level of target genes in different samples. The rplU was used as the endogenous control for data analysis. qRT-PCR data were analyzed using Relative Expression Software Tool as described (Pfaffl, M. W., Horgan, G. W., and Dempfle, L. (2002) Relative expression software tool (REST) for group-wise comparison and statistical analysis of relative expression results in real-time PCR. Nucleic Acids Res 30:e36.).

exoS promoter (T3SS) = assay: exoS promoter-gfp reporter pATexoS, flow cytometry; type: cell-based, P. aeruginosa PA01; conditions: for Actual readings of flow cytometry (exoS expression): 6 h, LB with 200 mM NaCl, 10 mM NTA; for Fraction of untreated control (exoS expression): structure-activity table, concentration not given
Description: To identify T3SS inhibitors of PA01, a promoter-probe vector pPROBE-AT containing the promoterless green fluorescent protein (gfp) gene was used to construct an exoS promoter-gfp plasmid reporter, pATexoS. PA01 containing pATexoS was cultured in T3SS-inducing medium containing dimethyl sulfoxide (DMSO; solvent of chemical compounds), or supplemented with 250 μM of each compound, and promoter activity was assessed at 6 h by measuring GFP intensity using flow cytometry. 101 compounds (58 synthesized and 43 commercially available) were screened. Compounds 027, 032, 101, and 149 repressed exoS expression at the final concentration of 250 μM by at least one standard deviation below the sample average (Z score≦−1) (FIG. 37 A-E). Z score (or standard score) indicates how many standard deviations an observation or datum is above or below the mean [z=(x−μ)/σ, where x is a raw score to be standardized, μ is the mean of the population, and σ is the standard deviation of the population].
To determine the effective concentration of compounds, the dose-dependent effect of potential inhibitors on exoS expression and bacterial growth were tested. P. aeruginosa cells carrying pATexoS were pre-cultured in LB supplemented with 200 mM NaCl and transferred to fresh LB with 200 mM NaCl, 10 mM NTA, and various concentrations of compounds (20, 50, 100, and 250 μM) or DMSO for 6 h. […] At 50 μM dosage, both 027 and 101 inhibited exoS expression at similar levels, and this inhibitory effect increased as compound concentration increased (FIG. 38A and Table 17). […] These inhibitions/inductions of exoS expression are caused by the shifting bacterial population between low-state expression cells and high-state expression cells (FIG. 40).

[2] = hrpL mutant WPP96 (phrpA), 12 h
[3] = Trial 1, MM supplemented with compound at 100 μM

O=C(O)/C=C/c1ccccc1 [Compound 001, trans-cinnamic acid]
change of average GFP fluorescence intensity of Ech3937 (phrpA) vs MM alone, in words (hrpA promoter (T3SS); 12 h): doubled | GFP Mean Fluorescence Intensity, hrpA promoter (hrpA promoter (T3SS); Ech3937 (phrpA), 6 h): 22.3 ± 2.1 | GFP Mean Fluorescence Intensity, hrpA promoter (hrpA promoter (T3SS); Ech3937 (phrpA), 24 h): 203.7 ± 16.1 | GFP Mean Fluorescence Intensity, hrpA promoter (hrpA promoter (T3SS); [2]): 6.2 ± 0.6 | GFP Mean Fluorescence Intensity, mrp promoter (reference gene) ([1]; Ech3937 (pmrp), MM + 0.1 mM compound, 12 h): 105 ± 0.3

O=C(O)/C=C/c1ccc(O)cc1 [Compound 004, para-coumaric acid]
inhibitory effect on hrpA at 10 μM, in words (hrpA promoter (T3SS); 10 μM added to T3SS-inducing minimal medium (MM)): No inhibitory effect | GFP Mean Fluorescence Intensity, hrpA promoter (hrpA promoter (T3SS); Ech3937 (phrpA), 12 h, listed as PCA): 9.2 ± 0.4 | Mean Fluorescence Intensity of GFP (hrpA, phrpA) (hrpA promoter (T3SS); [3]): 9.4 ± 0.1 | Mean Fluorescence Intensity of GFP (hrpA, phrpA) (hrpA promoter (T3SS); Trial 2, MM supplemented with compound at 100 μM): 9.3 ± 0.2 | effect on GFP fluorescence intensity of Ech3937 (phrpA), in words (hrpA promoter (T3SS); concentrations at 0.001, 0.005 and 0.01): did not result in substantial reduction of GFP fluorescence intensity | GFP Mean Fluorescence Intensity, hrpA promoter (hrpA promoter (T3SS); [2]): 7.3 ± 0.1 | GFP Mean Fluorescence Intensity, hrpA promoter (hrpA promoter (T3SS); hrpL mutant WPP96 (phrpA), 24 h): 9.0 ± 1.6 | GFP Mean Fluorescence Intensity, hrpA promoter (hrpA promoter (T3SS); hrpS mutant WPP90 (phrpA), 12 h): 7.9 ± 0.2 | GFP Mean Fluorescence Intensity, hrpA promoter (hrpA promoter (T3SS); hrpS mutant WPP90 (phrpA), 24 h): 9.3 ± 0.2 | GFP Mean Fluorescence Intensity, hrpA promoter (hrpA promoter (T3SS); hrpX mutant WPP67 (phrpA), 12 h): 7.9 ± 0.2 | GFP Mean Fluorescence Intensity, hrpA promoter (hrpA promoter (T3SS); hrpX mutant WPP67 (phrpA), 24 h): 9.0 ± 1.3 | GFP Mean Fluorescence Intensity, hrpA promoter (hrpA promoter (T3SS); hrpY mutant WPP92 (phrpA), 12 h): 6.9 ± 0.1 | GFP Mean Fluorescence Intensity, hrpA promoter (hrpA promoter (T3SS); hrpY mutant WPP92 (phrpA), 24 h): 9.4 ± 0.7 | dspE mRNA compared with MM alone, in words (dspE mRNA): significantly lower amount of mRNA | Actual readings of flow cytometry (exoS expression) (exoS promoter (T3SS); 20 uM): 119.08 ± 1.82 | Actual readings of flow cytometry (exoS expression) (exoS promoter (T3SS); 50 uM): 127.05 ± 4.43 | Actual readings of flow cytometry (exoS expression) (exoS promoter (T3SS); 100 uM): 118.16 ± 2.73 | Actual readings of flow cytometry (exoS expression) (exoS promoter (T3SS); 250 uM): 117.74 ± 5.09 | effect on exoS promoter activity, in words (exoS promoter (T3SS); screening for T3SS inhibitors): little or no effect on exoS promoter activity | Fraction of untreated control (exoS expression) (exoS promoter (T3SS)): 0.94 ± 0.05

O=C(O)/C=C/c1ccccc1O [Compound 006, Ortho-coumaric acid]
change of average GFP fluorescence intensity of Ech3937 (phrpA) vs MM alone, in words (hrpA promoter (T3SS); 12 h): doubled | GFP Mean Fluorescence Intensity, hrpA promoter (hrpA promoter (T3SS); Ech3937 (phrpA), 12 h, listed as OCA): 82 ± 1 | GFP Mean Fluorescence Intensity, hrpA promoter (hrpA promoter (T3SS); Ech-Rif (phrpA), 6 h): 18 ± 0 | GFP Mean Fluorescence Intensity, hrpA promoter (hrpA promoter (T3SS); Ech-Rif (phrpA), 12 h): 51 ± 2 | GFP Mean Fluorescence Intensity, hrpA promoter (hrpA promoter (T3SS); Ech-Rif (phrpA), 24 h): 49 ± 1 | GFP Mean Fluorescence Intensity, hrpA promoter (hrpA promoter (T3SS); gacA mutant Ech137 (phrpA), 6 h): 4.9 ± 0.1 | GFP Mean Fluorescence Intensity, hrpA promoter (hrpA promoter (T3SS); gacA mutant Ech137 (phrpA), 12 h): 5.9 ± 0.1 | GFP Mean Fluorescence Intensity, hrpA promoter (hrpA promoter (T3SS); gacA mutant Ech137 (phrpA), 24 h): 8.3 ± 0 | GFP Mean Fluorescence Intensity, hrpA promoter (hrpA promoter (T3SS); [2]): 6.5 ± 0.2 | dspE mRNA compared with MM alone, in words (dspE mRNA): significantly higher amount

O=C(/C=C/c1ccc(O)cc1)NO [Compound 103, trans-4-Hydroxycinnamohydroxamic acid]
reduction of hrpA expression (hrpA promoter (T3SS); 10 μM added to the medium): approximately 4 fold | inhibitory activity on T3SS gene (hrpA) expression, in words (hrpA promoter (T3SS); D. dadantii 3937, reporter plasmid phrpA, 100 μM): showed inhibitory effect | minimal effective concentration (hrpA promoter (T3SS); Dickeya dadantii, read-out: minimal inhibitory concentration on hrpA expression (concentration showing inhibitory effect)): 10 µM | Mean Fluorescence Intensity of GFP (hrpA, phrpA) (hrpA promoter (T3SS); [3]): 9.3 ± 0.3 | mean fluorescence intensity of GFP, mrp promoter ([1]; 12 h): 81.2 ± 0.7 | mean fluorescence intensity of GFP, mrp promoter ([1]; 24 h): 67.7 ± 2.5 | Actual readings of flow cytometry (exoS expression) (exoS promoter (T3SS); 20 uM): 179.07 ± 2.98 | Actual readings of flow cytometry (exoS expression) (exoS promoter (T3SS); 50 uM): 237.31 ± 4.94 | Actual readings of flow cytometry (exoS expression) (exoS promoter (T3SS); 100 uM): 279.16 ± 2.72 | Actual readings of flow cytometry (exoS expression) (exoS promoter (T3SS); 250 uM): 328.30 ± 3.24 | Fraction of untreated control (exoS expression) (exoS promoter (T3SS)): 2.04 ± 0.13
